Holding throughout (format): in vivo
The subject of assay [1] is vitiligo guinea pig model caused by hydroquinone depigmentation. The experiment in a line: Vitiligo guinea pig model caused by hydroquinone depigmentation: counts of epidermal MC and melanin-granule-containing basal cells. The settings on record: guinea pig skin after hydroquinone decolorization, drug once a day for 30 days, n = 10, x ± s; for Epidermal melanocyte count: average number of MCs in each 100 epidermal basal cells; for Basal cells containing melanin granules count: average number per 100 epidermal basal cells. The procedure:
(§1) 10 in each group, Half male and female. Except for the blank control group, the other groups were smeared with 5% hydroquinone in the hair removal area for decolorization, 0.5 mL each time, twice a day, and the animals in the blank control group were smeared with an equal amount of normal saline every day. […] After modeling, the drug was administered in the above manner, once a day for 30 days.
After the observation, the mice were sacrificed, and the skin tissue on the back about 3 cm×3 cm was cut for histopathological examination.
The excised mouse skin tissue was fixed in 10% formalin for 1 hour, washed with running water for 3-4 min, and placed into a phosphate buffer solution (pH 7.4) containing 0.1% dihydroxyphenylalanine, and let stand at 37° C. for 1 hour. Then it was replaced with fresh Dopa reagent and left at 37° C. for 12 hours, rinsed with running water, and fixed with Bouin's solution continuously for 24 h. After the specimens were taken out, it was rinsed with running water for 4 hours, dehydrated, cleared in xylene, embedded in paraffin, deparaffinized to water, and stained with hematoxylin-eosin for contrast. Dehydrated and routinely mounted. After Dopa-oxidase staining, brownish-black staining was MC positive.
The excised mouse skin tissue was fixed in 10% formalin, dehydrated, cleared with xylene, embedded in paraffin, sectioned, deparaffinized to water, washed with distilled water several times, then stained with Lillie reagent, soaked with ferric chloride and potassium ferricyanide mixed solution for 15-20 minutes, then differentiated with 1% acetic acid aqueous solution for several minutes, washed with distilled water several times, then quickly dehydrated with 95% ethanol and absolute ethanol, cleared in xylene, and sealed with neutral gum. If melanin was dark green after Lillie reagent staining, it was positive.

For another assay, the system named is tyrosinase. Briefly: Tyrosinase intensity in skin tissue of vitiligo guinea pig model (immunohistochemistry, two-level scoring). As to conditions: n = 10; for Color (units): score in brackets for staining colour; for Number of positive cells (units): score in brackets for tyrosinase-positive cells; for Total number (units): sum of positive-cell and colour scores; for Color: tyrosinase staining colour; for Number of positive cells: tyrosinase-positive cells. The procedure:
as §1
The excised mouse skin tissue was fixed in 10% formalin dehydrated, cleared in xylene, embedded in paraffin, sectioned, deparaffinized to water, then 50 μL of peroxidase blocking agent (3% H2O2) was added to each section for 10 min to block endogenous peroxidase activity. The sections were immersed in 0.01 mol·L-1PBS buffer and microwaved for 10 min, added with 50 μL mouse anti-human tyrosinase monoclonal antibody, left at 37° C. for 60 min, then added with 50 μL of Elivision reagent, left at 37° C. for 30 min. The sections were then placed in freshly prepared DAB-H2O2 chromogenic solution for color development, rinsed with distilled water, stained with hematoxylin for contrast for 1 min, and sealed with neutral gum. The tyrosinase-positive product was located in the cytoplasm of the cell, shown as yellow or brownish-yellow granules or clumps in the cells under the microscope. The two-level scoring method was used to determine the results. If the number of positive cells was less than 5%, the score was 0; 5%˜25% is 1 point; 2 points for 25%˜50%; 3 points for 50%˜75%; >75% is 4 points. When classified according to staining intensity: 1 point for light yellow; 2 points for yellow or dark yellow; 3 points for brown or brownish yellow. If the sum of the two was less than 2, it was negative (−); 2-3 points as positive (+); 4-5 points as moderately positive (2+); 6-7 points as strongly positive (3+).

Assay [2] concerns hair follicles / hair growth in depilated C57BL/6 mice. The experiment in a line: Hair growth in C57BL/6 mice after rosin/paraffin depilation. The settings on record: for Time from hair growth to the same length as the hair in the non-experimental area / Time to grow new hair / Time to match the length of hair in the non-experimental area: back hair removal area of mice; for Black skin duration / Skin black-turning time / Skin grayish-black-turning time: hair removal area on the back of mice; for Skin black-turning time / Skin grayish-black-turning time: after hair removal. The procedure: SPF grade C57BL/6 mice were selected and numbered according to their weight. They were randomly divided into compound group 1 (skin applied with 2% R-IMPP solution), compound group 2 (skin applied with 2% PF 06446846 solution), and compound group 3 (skin applied with 2% SBC-115076 solution), compound group 4 (skin applied with 2% SBC-110736 solution), monoclonal antibody group 1 (PCSK9subcutaneous injection monoclonal antibody ab81041, 5 mg/kg·d), monoclonal antibody group 2 (Subcutaneous injection of Evolocumab, 5 mg/kg·d), monoclonal antibody group 3 (subcutaneous injection of Alirocumab, 5 mg/kg·d), PCSK9 RNA interference group-1 (skin applied with 2% PCSK9 small interfering RNA-1 solution), PCSK9 RNA interference Group-2 (skin applied with 2% PCSK9 small interfering RNA-2 solution), PCSK9 RNA interference group-3 (skin applied with 2% PCSK9 small interfering RNA-3 solution), polypeptide group (subcutaneous injection of Abcam company ab32727, 3 mg/kg·d), positive control group (skin applied with 2% minoxidil solution), negative control group (skin applied with 60% ethanol), and model control group (skin applied with 60% ethanol), 10 mice in each group, half male and half female. After the mice were anesthetized with ether, they were coated on the back with a mixture of rosin and paraffin (1:1) after hot melting, and then peeled off after it solidified and hardened. The back of the mouse was cleaned to be hairless and without injuries. The depilation area was about 3 cm×4 cm. From the 2nd day after depilation, the corresponding drugs were applied to the hair removal area, twice a day, 0.5 mL per animal each time, and subcutaneously injected once a week.
From the second day after application, observe the daily color change of the skin on the back of the mice to determine the growth state of the hair follicles and visually observe the hair growth in the depilation area, and score the new hair growth in the depilation area once a day. Five mice in each group were reserved for 40 days of visual observation, and the growth of back hair was recorded.
On the 17th day, five mice in each group were sacrificed by cervical dislocation. The samples were taken from the same part of the back parallel to the spine, fixed with 10% formaldehyde, dehydrated, embedded in paraffin, sectioned, stained with HE, and sealed with neutral gum. Then the histology of hair follicles was observed under light microscope, and morphological staging of hair follicles was performed. According to the international hair cycle scoring method, the hair follicles were scored as follows: 100 points for growth stage VI, 200 points for early regression, 300 points for middle regression, and 400 points for late regression. 50 hair follicles were randomly selected from each mouse, the cycle of the hair follicles in each group was determined, and the average hair cycle score and the percentage of hair follicles in the growth phase VI, early regression, middle regression, and late regression were calculated.

Marks after values point to notes of the source that are not given here.

We go through seven molecules from patent US20230346773A1, “USE OF PCSK9 INHIBITOR IN PREPARATION OF PRODUCT FOR TREATING MULTIPLE DISEASES” (priority 2020, published 2023).

Turning to `COc1ccc(CCC(=O)N(c2nccc3ccccc23)[C@@H]2CCCNC2)cc1` [Compound group 1, R-IMPP], in assay [1], the Epidermal melanocyte count is 33.6 ± 2.9 and the “Basal cells containing melanin granules count” value stood at 36.5 ± 3.8. In the assay with tyrosinase, the “Color (units)” value worked out at 2 units, the “Number of positive cells (units)” value came to 3 units, the “Total number (units)” value turned out to be 5 units and the Color result was “Brownish-yellow”. In addition, the “Number of positive cells” value in the assay on tyrosinase worked out at 30%. Moreover, in assay [2], the “Time from hair growth to the same length as the hair in the non-experimental area” value (shortened to “Time … as the hair in the non-experimental area”) was 11.14* days, the “Time to grow new hair” value is reported as 6.92* days, the “Time to match the length of hair in the non-experimental area” value is 18.06* days and the Black skin duration was 14.29* days. Further, in assay [2], the Skin black-turning time was 5.96* days and the Skin grayish-black-turning time is given as 20.25* days.

On to `O=C(c1ccc(-n2nnc3cccnc32)cc1)N(c1ncccc1Cl)[C@@H]1CCCNC1` [Compound group 2, PF 06446846], for which, in assay [1], the Epidermal melanocyte count amounted to 39.3 ± 3.2 and the “Basal cells containing melanin granules count” value came to 38.8 ± 3.9. In the assay on tyrosinase, the “Color (units)” value came out at 3 units, the “Number of positive cells (units)” value amounted to 4 units, the “Total number (units)” value was determined as 7 units and the Color result is given as “Brownish-yellow”. The “Number of positive cells” value in the assay with tyrosinase amounted to 40%. For the same molecule, in assay [2], the “Time … as the hair in the non-experimental area” value is 10.46* days, the “Time to grow new hair” value is given as 6.33* days, the “Time to match the length of hair in the non-experimental area” value is 17.69* days and the Black skin duration was 10.86* days. In assay [2], the Skin black-turning time is 5.45* days and the Skin grayish-black-turning time is listed as 17.32* days.

As for `Cc1cc(C(=O)C2=C(O)C(=O)N(CCCN3CCOCC3)C2c2ccncc2)ccc1OCc1ccccc1` (stereo not shown) [Compound group 3, SBC-115076], in assay [1], the Epidermal melanocyte count came to 36.1 ± 2.8 and the “Basal cells containing melanin granules count” value came to 36.9 ± 3.6. Besides, in the assay on tyrosinase, the “Color (units)” value is recorded as 3 units, the “Number of positive cells (units)” value is reported as 3 units, the “Total number (units)” value was 6 units and the Color entry is reported as “Brownish-yellow”. For the same molecule, the “Number of positive cells” value in the assay on tyrosinase was 30%. In assay [2], the “Time … as the hair in the non-experimental area” value is on record as 11.52* days, the “Time to grow new hair” value is recorded as 6.95* days, the “Time to match the length of hair in the non-experimental area” value is reported as 19.35* days and the Black skin duration is 11.65* days. Further, in assay [2], the Skin black-turning time is on record as 5.63* days and the Skin grayish-black-turning time is 18.12* days.

Consider `CC(=O)Nc1ccc(C(=O)N2CCN(c3ccc(C)cc3)CC2c2ccccc2)cc1` (stereo not shown) [Compound group 4, SBC-110736], for which, in assay [1], the Epidermal melanocyte count is 34.6 ± 2.6 and the “Basal cells containing melanin granules count” value is 36.8 ± 3.7. For the same molecule, in the assay on tyrosinase, the “Color (units)” value was 3 units, the “Number of positive cells (units)” value is on record as 3 units, the “Total number (units)” value came out at 6 units and the Color entry is “Brownish-yellow”. The “Number of positive cells” value in the assay on tyrosinase turned out to be 30%. Also, in assay [2], the “Time … as the hair in the non-experimental area” value is listed as 11.87* days, the “Time to grow new hair” value is on record as 6.98* days, the “Time to match the length of hair in the non-experimental area” value is reported as 18.46* days and the Black skin duration is 12.32* days. Also, in assay [2], the Skin black-turning time was 5.78* days and the Skin grayish-black-turning time is 18.46* days.

As for ALN-PCS [RNA interference group 3], in assay [1], the Epidermal melanocyte count is recorded as 33.8 ± 2.7 and the “Basal cells containing melanin granules count” value was 35.3 ± 3.1. Besides, in the assay with tyrosinase, the “Color (units)” value was determined as 2 units, the “Number of positive cells (units)” value is listed as 3 units, the “Total number (units)” value came to 5 units and the Color entry is “Yellow”. For the same molecule, the “Number of positive cells” value with tyrosinase came to 30%. Moreover, in assay [2], the “Time … as the hair in the non-experimental area” value is 14.26* days, the “Time to grow new hair” value is 6.96* days, the “Time to match the length of hair in the non-experimental area” value is recorded as 21.38* days and the Black skin duration was 12.16* days. For the same molecule, in assay [2], the Skin black-turning time was 6.08* days and the Skin grayish-black-turning time was 18.52* days.

For “Alirocumab [Monoclonal antibody group 3]”, in assay [1], the Epidermal melanocyte count is on record as 43.5 ± 3.6 and the “Basal cells containing melanin granules count” value was found to be 39.6 ± 3.7. In addition, in the assay on tyrosinase, the “Color (units)” value was determined as 4 units, the “Number of positive cells (units)” value was determined as 3 units, the “Total number (units)” value turned out to be 7 units and the Color result was “Brownish-yellow”. For the same molecule, the “Number of positive cells” value with tyrosinase worked out at 30%. In assay [2], the “Time … as the hair in the non-experimental area” value is recorded as 10.13* days, the “Time to grow new hair” value was 6.06* days, the “Time to match the length of hair in the non-experimental area” value was 16.75* days and the Black skin duration is recorded as 13.43* days. In assay [2], the Skin black-turning time is 5.35* days and the Skin grayish-black-turning time is recorded as 16.65* days.

Take Inclisran [RNA interference group 2]: in assay [1], the Epidermal melanocyte count amounted to 32.6 ± 2.8 and the “Basal cells containing melanin granules count” value stood at 36.1 ± 3.2. In the assay on tyrosinase, the “Color (units)” value is reported as 2 units, the “Number of positive cells (units)” value is given as 3 units, the “Total number (units)” value is recorded as 5 units and the Color result was “Yellow”. The “Number of positive cells” value in the assay with tyrosinase came to 30%. For the same molecule, in assay [2], the “Time … as the hair in the non-experimental area” value is reported as 14.12* days, the “Time to grow new hair” value is on record as 6.92* days, the “Time to match the length of hair in the non-experimental area” value is reported as 20.16* days and the Black skin duration is listed as 11.87* days. Besides, in assay [2], the Skin black-turning time is on record as 5.66* days and the Skin grayish-black-turning time is 18.23* days.
